Assay [1] in a line: Counterscreen for AddAB inhibitors: absorbance-based bacterial cell-based high throughput dose response assay for inhibitors of bacterial viability. [Related pubchem assays (depositor defined):AID435030, AID449728, AID449731, AID488942, AID488955, AID488956]. It is filed as functional.
The target of the next assay is Exodeoxyribonuclease V (Escherichia coli (strain K12), UniProt P04993+P07648+P08394). Briefly: RecBCD inhibition via phage-restricted bacterial growth – absorbance, V66 E. coli, mutant T4 phage, counter-screen for AddAB inhibitor project, dose response (AID 492957). Type of assay: functional, cell-based, Escherichia coli str. K-12 substr. MG1655.
For assay [2], the target named is G-protein coupled receptor 55 (Homo sapiens, UniProt Q9Y2T6). The assay is described as follows: inhibition of LPI-stimulated GPR55 beta-arrestin translocation – imaging, U2OS, beta-arrestin-GFP, LPI agonist, primary screen (AID 2013).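 Also: antagonist potency measured as reduced agonist-driven arrestin aggregation.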 It is filed as functional.
Sequence of G-protein coupled receptor 55 (Q9Y2T6 whole entry): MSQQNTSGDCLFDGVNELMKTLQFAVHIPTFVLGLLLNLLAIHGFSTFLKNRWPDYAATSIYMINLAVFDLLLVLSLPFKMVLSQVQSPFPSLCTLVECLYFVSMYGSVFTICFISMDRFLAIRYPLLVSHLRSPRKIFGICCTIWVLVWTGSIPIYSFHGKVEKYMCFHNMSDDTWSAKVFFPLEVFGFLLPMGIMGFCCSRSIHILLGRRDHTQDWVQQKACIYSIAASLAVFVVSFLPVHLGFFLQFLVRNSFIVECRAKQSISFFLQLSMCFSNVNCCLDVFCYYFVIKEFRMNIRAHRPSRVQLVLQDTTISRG
The target of assay [3] is T1, Sphingosine 1-phosphate receptor 4 (Homo sapiens, UniProt O95977).
T1 sequence (O95977 whole entry): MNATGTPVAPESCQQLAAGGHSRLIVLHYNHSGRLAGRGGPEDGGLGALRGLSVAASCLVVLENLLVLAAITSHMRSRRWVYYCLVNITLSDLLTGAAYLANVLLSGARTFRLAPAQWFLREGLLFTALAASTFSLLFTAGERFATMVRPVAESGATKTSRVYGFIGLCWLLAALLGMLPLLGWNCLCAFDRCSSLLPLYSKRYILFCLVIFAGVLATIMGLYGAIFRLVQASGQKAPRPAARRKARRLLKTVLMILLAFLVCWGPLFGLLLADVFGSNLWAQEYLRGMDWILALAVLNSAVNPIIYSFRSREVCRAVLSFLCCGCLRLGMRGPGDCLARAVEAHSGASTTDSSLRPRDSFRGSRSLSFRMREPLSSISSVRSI
The assay is described as follows: potency of S1P4 blockers – cell-based, fluorescence, synthesized analogues, late-stage follow-up (AID 2346). It is filed as functional.

For assay [4], the target named is Sphingosine 1-phosphate receptor 2 (Homo sapiens, UniProt O95136). The assay is described as follows: Late stage counterscreen assay for S1P4 antagonists: Fluorescence dose response cell-based screening assay for antagonists of the Sphingosine 1-Phosphate Receptor 2 (S1P2). [Related pubchem assays (depositor defined):AID1510, AID1524, AID1692, AID1853, AID2332, AID489009, AID489017]. It is filed as functional.
Sequence of Sphingosine 1-phosphate receptor 2 (O95136 whole entry): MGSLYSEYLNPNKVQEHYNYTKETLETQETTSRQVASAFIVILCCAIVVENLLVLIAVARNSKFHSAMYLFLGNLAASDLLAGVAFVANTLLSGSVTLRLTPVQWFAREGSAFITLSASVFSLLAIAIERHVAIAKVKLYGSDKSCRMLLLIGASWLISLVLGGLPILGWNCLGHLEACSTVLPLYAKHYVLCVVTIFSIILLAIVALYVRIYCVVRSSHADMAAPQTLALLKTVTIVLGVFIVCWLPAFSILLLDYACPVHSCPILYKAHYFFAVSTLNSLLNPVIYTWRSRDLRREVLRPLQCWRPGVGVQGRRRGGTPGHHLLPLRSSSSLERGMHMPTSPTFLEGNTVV

Assay [5] has as its target Sphingosine 1-phosphate receptor 5 (Homo sapiens, UniProt Q9H228). Briefly: Late stage counterscreen assay for S1P4 antagonists: Fluorescence dose response cell-based screening assay for antagonists of the Sphingosine 1-Phosphate Receptor 5 (S1P5). [Related pubchem assays (depositor defined):AID1510, AID1524, AID1692, AID1853, AID2332, AID489009, AID489017]. Type of assay: functional.

In assay [6] the target is Sphingosine 1-phosphate receptor 1 (Homo sapiens, UniProt P21453). The assay is described as follows: Late stage counterscreen assay for S1P4 antagonists: Fluorescence dose response cell-based screening assay for antagonists of the Sphingosine 1-Phosphate Receptor 1 (S1P1). [Related pubchem assays (depositor defined):AID1510, AID1524, AID1692, AID1853, AID2332, AID489009, AID489017]. It is filed as functional.
Sequence of Sphingosine 1-phosphate receptor 1 (P21453 whole entry): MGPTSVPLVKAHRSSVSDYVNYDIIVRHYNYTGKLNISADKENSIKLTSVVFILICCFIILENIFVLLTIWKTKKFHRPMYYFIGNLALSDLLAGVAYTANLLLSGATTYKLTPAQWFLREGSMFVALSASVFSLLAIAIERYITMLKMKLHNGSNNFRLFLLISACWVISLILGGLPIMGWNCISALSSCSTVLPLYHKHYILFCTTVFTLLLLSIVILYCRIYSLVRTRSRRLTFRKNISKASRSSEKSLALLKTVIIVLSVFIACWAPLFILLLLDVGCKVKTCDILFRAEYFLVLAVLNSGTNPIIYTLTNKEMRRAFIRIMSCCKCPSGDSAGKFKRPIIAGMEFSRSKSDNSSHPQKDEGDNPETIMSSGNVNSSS

Assay [7] deals with Sphingosine 1-phosphate receptor 3 (Homo sapiens, UniProt Q99500). Briefly: Late stage counterscreen assay for S1P4 antagonists: Fluorescence dose response cell-based screening assay for antagonists of the Sphingosine 1-Phosphate Receptor 3 (S1P3). [Related pubchem assays (depositor defined):AID1510, AID1524, AID1692, AID1853, AID2332, AID489009, AID489017]. Type of assay: functional.
Sequence of Sphingosine 1-phosphate receptor 3 (Q99500 whole entry): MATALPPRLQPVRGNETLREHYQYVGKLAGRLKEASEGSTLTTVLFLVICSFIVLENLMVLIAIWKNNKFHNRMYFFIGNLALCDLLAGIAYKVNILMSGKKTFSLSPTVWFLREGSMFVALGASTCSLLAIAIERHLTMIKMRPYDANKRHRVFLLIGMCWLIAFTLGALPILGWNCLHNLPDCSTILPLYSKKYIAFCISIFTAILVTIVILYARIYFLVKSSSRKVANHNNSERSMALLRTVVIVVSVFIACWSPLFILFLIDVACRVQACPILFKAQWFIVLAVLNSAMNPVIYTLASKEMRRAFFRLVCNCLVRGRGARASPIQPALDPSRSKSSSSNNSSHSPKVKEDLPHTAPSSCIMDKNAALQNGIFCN

Assay [8] addresses T2, Mu-type opioid receptor (Homo sapiens, UniProt P35372). Briefly: SAR Analysis of Agonists of the MOR Receptor using an Image-Based Assay - Set 2. [Related pubchem assays (depositor defined):AID1777, AID1785, AID1786, AID1966, AID2133, AID2136, AID2284, AID2285, AID2352]. It is filed as functional.
For assay [9], the target named is T3, Kappa-type opioid receptor (Homo sapiens, UniProt P41145). The assay is described as follows: SAR analysis of small molecule agonists of the kappa opioid receptor via a luminescent beta-arrestin assay - Set 3. [Related pubchem assays (depositor defined):AID1777, AID1785, AID1786, AID1966, AID2133, AID2136, AID2284, AID2500]. It is filed as functional.
T3 sequence (P41145 whole entry): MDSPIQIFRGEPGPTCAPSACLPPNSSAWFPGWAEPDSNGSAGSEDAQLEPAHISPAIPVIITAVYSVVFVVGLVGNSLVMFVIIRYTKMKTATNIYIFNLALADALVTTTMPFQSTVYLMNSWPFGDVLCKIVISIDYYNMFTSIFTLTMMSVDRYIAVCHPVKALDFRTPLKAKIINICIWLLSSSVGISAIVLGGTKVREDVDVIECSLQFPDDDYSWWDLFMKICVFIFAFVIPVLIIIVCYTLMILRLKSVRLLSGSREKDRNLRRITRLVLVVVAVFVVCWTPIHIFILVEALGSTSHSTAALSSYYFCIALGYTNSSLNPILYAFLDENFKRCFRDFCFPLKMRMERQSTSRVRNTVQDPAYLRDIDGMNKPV
For assay [10], the target named is T4, Delta-type opioid receptor (Homo sapiens, UniProt P41143). Briefly: SAR Analysis of Agonists of the DOR Receptor using an Image-Based Assay - Set 3. [Related pubchem assays (depositor defined):AID1777, AID1786]. It is filed as functional.
T4 sequence (P41143 whole entry): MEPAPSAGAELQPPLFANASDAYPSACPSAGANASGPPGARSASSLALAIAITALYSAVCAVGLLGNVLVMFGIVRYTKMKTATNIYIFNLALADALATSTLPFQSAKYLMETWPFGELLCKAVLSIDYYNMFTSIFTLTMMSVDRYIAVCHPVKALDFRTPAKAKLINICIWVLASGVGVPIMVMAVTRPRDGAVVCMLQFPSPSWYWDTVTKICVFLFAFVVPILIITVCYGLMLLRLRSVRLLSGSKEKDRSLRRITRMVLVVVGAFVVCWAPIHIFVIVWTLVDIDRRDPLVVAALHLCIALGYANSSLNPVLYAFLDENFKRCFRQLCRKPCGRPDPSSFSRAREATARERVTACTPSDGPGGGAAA
Assay [11] addresses T4, Delta-type opioid receptor. Briefly: SAR Analysis of Agonists of the DOR Receptor using an Image-Based Assay - Set 2. [Related pubchem assays (depositor defined):AID1777, AID1785, AID1786, AID1966, AID2133, AID2136, AID2284, AID2285, AID2370]. Type of assay: functional.
Assay [12] concerns the target T3, Kappa-type opioid receptor. The assay is described as follows: kappa opioid receptor activation by imaging – image-based, set 3, SAR follow-up (AID 488833). It is filed as functional.
The target in assay [13] is T3, Kappa-type opioid receptor. The assay is described as follows: SAR analysis of Antagonists of the Kappa Opioid Receptor (KOR) using an Image-Based Assay - Set 2. [Related pubchem assays (depositor defined):AID1777, AID1785, AID1786, AID1966, AID2133, AID2136, AID2284, AID2285, AID2348]. It is filed as functional.
Assay [14] concerns the target T2, Mu-type opioid receptor. Briefly: SAR Analysis of Agonists of the MOR Receptor using an Image-Based Assay - Set 3. [Related pubchem assays (depositor defined):AID1777, AID1785, AID1786, AID1966, AID2133, AID2136, AID2284, AID2285, AID2352]. Type of assay: functional.
For assay [15], the target named is T2, Mu-type opioid receptor. The assay is described as follows: SAR Analysis of Antagonists of the MOR Receptor using an Image-Based Assay - Set 2. [Related pubchem assays (depositor defined):AID1777, AID1785, AID1786, AID1966, AID2133, AID2136, AID2284, AID2285, AID2420]. It is filed as functional.
Assay [16] concerns the target T4, Delta-type opioid receptor. The assay is described as follows: SAR Analysis of Antagonists of the DOR Receptor using an Image-Based Assay - Set 2. [Related pubchem assays (depositor defined):AID1777, AID1785, AID1786, AID1966, AID2133, AID2136, AID2284, AID2285, AID2357]. It is filed as functional.
Assay [17] has as its target Nuclear receptor ROR-gamma (Homo sapiens, UniProt P51449). The assay is described as follows: LXR, FXR and VP16 reporter activity, cell-based, luciferase reporter, ROR modulator project, late-stage follow-up, panel member RORG (AID 2117).
Assay [18] addresses Nuclear receptor ROR-alpha (Homo sapiens, UniProt P35398). Briefly: LXR, FXR and VP16 reporter activity, cell-based, luciferase reporter, ROR modulator project, late-stage follow-up, panel member RORA (AID 2117).

The structures appear in SMILES notation. Activity calls are given as the source filed them. Unless noted, the rule behind the calls is not given here.

T2 sequence (P35372 whole entry): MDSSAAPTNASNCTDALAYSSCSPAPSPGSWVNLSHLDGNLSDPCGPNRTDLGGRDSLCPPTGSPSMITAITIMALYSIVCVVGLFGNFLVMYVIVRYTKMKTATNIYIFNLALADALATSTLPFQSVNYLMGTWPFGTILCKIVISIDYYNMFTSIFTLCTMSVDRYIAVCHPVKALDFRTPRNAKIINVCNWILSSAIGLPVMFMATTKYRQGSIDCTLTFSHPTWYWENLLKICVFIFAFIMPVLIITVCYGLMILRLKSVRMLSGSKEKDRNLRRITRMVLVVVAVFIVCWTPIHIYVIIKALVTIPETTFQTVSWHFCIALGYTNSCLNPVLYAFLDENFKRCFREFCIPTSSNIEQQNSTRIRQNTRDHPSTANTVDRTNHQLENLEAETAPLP
Sequence of Nuclear receptor ROR-alpha (P35398 whole entry): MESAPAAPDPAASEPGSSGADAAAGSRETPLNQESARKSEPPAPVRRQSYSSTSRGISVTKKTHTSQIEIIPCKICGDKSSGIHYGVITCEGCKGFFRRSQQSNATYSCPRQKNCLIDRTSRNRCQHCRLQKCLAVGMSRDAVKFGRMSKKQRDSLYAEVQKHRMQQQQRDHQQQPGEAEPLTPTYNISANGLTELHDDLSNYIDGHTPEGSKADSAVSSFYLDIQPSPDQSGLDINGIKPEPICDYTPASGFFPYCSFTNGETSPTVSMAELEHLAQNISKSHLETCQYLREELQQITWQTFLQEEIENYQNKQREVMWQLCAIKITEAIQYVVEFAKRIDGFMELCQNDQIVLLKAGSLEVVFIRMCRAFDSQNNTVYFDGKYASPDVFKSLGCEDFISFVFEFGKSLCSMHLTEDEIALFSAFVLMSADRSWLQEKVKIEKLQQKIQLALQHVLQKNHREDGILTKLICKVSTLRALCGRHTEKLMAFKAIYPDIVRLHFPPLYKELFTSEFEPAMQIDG
Sequence of Nuclear receptor ROR-gamma (P51449 whole entry): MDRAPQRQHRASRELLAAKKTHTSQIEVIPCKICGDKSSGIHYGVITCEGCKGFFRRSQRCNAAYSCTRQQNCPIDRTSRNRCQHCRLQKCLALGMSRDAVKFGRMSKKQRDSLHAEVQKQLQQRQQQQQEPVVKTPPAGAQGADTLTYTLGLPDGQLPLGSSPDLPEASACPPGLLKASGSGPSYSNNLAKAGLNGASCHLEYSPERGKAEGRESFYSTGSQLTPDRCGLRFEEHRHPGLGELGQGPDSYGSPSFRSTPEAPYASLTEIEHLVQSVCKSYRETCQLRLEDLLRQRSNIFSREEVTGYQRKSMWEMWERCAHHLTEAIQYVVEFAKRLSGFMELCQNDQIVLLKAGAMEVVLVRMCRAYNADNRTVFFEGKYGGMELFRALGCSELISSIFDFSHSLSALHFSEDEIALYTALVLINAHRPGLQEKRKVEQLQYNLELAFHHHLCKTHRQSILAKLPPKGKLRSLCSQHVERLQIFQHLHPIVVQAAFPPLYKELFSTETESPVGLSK
Sequence of Sphingosine 1-phosphate receptor 5 (Q9H228 whole entry): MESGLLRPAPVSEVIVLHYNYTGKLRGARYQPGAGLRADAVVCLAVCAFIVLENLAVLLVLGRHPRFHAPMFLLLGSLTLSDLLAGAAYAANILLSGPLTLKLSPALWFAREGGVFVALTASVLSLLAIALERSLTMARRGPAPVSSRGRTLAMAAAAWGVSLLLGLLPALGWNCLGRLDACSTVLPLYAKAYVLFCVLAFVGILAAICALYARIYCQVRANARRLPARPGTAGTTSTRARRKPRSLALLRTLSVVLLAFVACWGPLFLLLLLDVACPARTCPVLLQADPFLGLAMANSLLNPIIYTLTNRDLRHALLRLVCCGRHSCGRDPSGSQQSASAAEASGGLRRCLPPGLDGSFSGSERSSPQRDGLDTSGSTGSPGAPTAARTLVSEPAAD

For the compound `O=[N+]([O-])c1c(O)oc2ccccc2/c1=N\C(c1ccccc1)c1ccccc1`, the values for the IC50 (in [1]; on Exodeoxyribonuclease V; in assay [2]) were > 119 µM (inactive), > 119 µM (inactive) and 2.79 µM (active), respectively.
With `Cc1ccc(NC(=O)c2ccc(-c3cc(Cl)ccc3Cl)o2)c(C)c1`, the IC50 in [3] was 0.182 µM (active); in assay [4] it was > 25 µM (inactive); in assay [5], > 25 µM (inactive); in assay [6] it was > 25 µM (inactive); in assay [7] it was > 25 µM (inactive).
Consider `Clc1ccc(CSc2nnc(-c3ccccn3)n2Cc2cccs2)cc1Cl`, for which the EC50 at Mu-type opioid receptor [8] was > 32 µM (inactive); in assay [9], 0.454 µM (active); in assay [10], > 64 µM (inactive); in [11] it was > 32 µM (inactive); in assay [12], 0.349 µM (active); at Mu-type opioid receptor [14], > 32 µM (inactive). Besides, the IC50 (in assay [13]; at Mu-type opioid receptor [15]; in assay [16]) was > 32 µM (inactive) in each case.
For the compound `CC(C)(C)c1ccc(S(=O)(=O)Nc2ccc(C(O)(C(F)(F)F)C(F)(F)F)cc2)cc1`, the IC50 is > 20 µM (inactive) in assay [17] and 2.47 µM (active) in [18].
